Source: patent publication US7622594B2, “Glucocortioid mimetics, methods of making them, pharmaceutical compositions, and uses thereof” (Boehringer Ingelheim Pharmaceuticals, Inc., priority 2005, dated 2009)

Tested on: IL-6 production in human foreskin fibroblast cells
Experiment: Inhibition of IL-6 production in fibroblasts (cell assay for transrepression)
Format: cell-based
Conditions: IL-1 stimulated human foreskin fibroblasts
Description: Human foreskin fibroblast cells produce IL-6 in response to stimulation by proinflammatory cytokine IL-1.
Human foreskin fibroblast cells (ATCC Cat. No. CRL-2429) are plated on 96 well plates at 5,000 cells per well the day before use, in Iscove's Modified Dulbecco's Media (GibcoBRL Life Technologies Cat. No. 12440-053) supplemented with 10% charcoal filtered FBS (Clonetech Cat. No. SH30068) and Gentamycin (GibcoBRL Life Technologies Cat. No. 15710-064). On the next day, media in the wells is replaced with fresh media. Cells are treated with IL-1 (rhIL-1α, R&D Systems Cat. No. 200-LA) to a final concentration of 1 ng/mL, and with test compounds to final concentrations of 10^−5 M to 10^−8 M, in a total volume of 200 μL per well. Samples are done in duplicates. […] Positive control wells receive IL-1 only and represent maximum (or 100%) amount of IL-6 production. Plates are incubated at 37° C. overnight (15 to 18 hours), and supernatants are harvested at the end of incubation. IL-6 levels in the supernatants are determined by the ELISA kits for IL-6 (MedSystems Diagnostics GmbH, Vienna, Austria, Cat. No. BMS213TEN) according to manufacture's instructions. The extent of inhibition of IL-6 by test compounds is expressed in percentage relative to positive controls. IC50 values of test compounds are derived by non-linear curve fitting.

Structure (SMILES)	agonistic activity by inhibiting IL-6 production in Fibroblasts
OC(c1ccc(F)c(Cl)c1)(c1ccc2c(cnn2-c2ccccc2)c1)C(F)(F)F (stereo not shown) [1-(3-Chloro-4-fluorophenyl)-2,2,2-trifluoro-1-(1-phenyl-1H-indazol-5-yl)ethanol]	agonistic activity
OC(c1ccc(F)c(Cl)c1)(c1ccc2c(cnn2-c2ccc(F)cc2)c1)C(F)(F)F (stereo not shown) [1-(3-Chloro-4-fluorophenyl)-2,2,2-trifluoro-1-[1-(4-fluorophenyl)-1H-indazol-5-yl]ethanol]	agonistic activity
OC(c1ccc2c(cnn2-c2ccccc2)c1)(c1csc2ccccc12)C(F)(F)F (stereo not shown) [1-Benzo[b]thiophen-3-yl-2,2,2-trifluoro-1-(1-phenyl-1H-indazol-5-yl)ethanol]	agonistic activity
OC(c1ccc2c(cnn2-c2ccc(F)cc2)c1)(c1csc2ccccc12)C(F)(F)F (stereo not shown) [1-Benzo[b]thiophen-3-yl-2,2,2-trifluoro-1-[1-(4-fluorophenyl)-1H-indazol-5-yl]ethanol]	agonistic activity
OC(c1ccc2c(cnn2-c2ccccc2)c1)(c1ccnc2ccccc12)C(F)(F)F (stereo not shown) [2,2,2-Trifluoro-1-(1-phenyl-1H-indazol-5-yl)-1-quinolin-4-ylethanol]	agonistic activity
OC(c1ccc2c(cnn2-c2ccccc2)c1)(c1ccc(F)c2ccccc12)C(F)(F)F (stereo not shown) [2,2,2-Trifluoro-1-(4-fluoronaphthalen-1-yl)-1-(1-phenyl-1H-indazol-5-yl)ethanol]	agonistic activity
OC(c1ccc2c(cnn2-c2ccc(F)cc2)c1)(c1ccc(F)c2ccccc12)C(F)(F)F (stereo not shown) [2,2,2-Trifluoro-1-(4-fluoronaphthalen-1-yl)-1-[1-(4-fluorophenyl)-1H-indazol-5-yl]ethanol]	agonistic activity
Cc1ccc(C(O)(c2ccc3c(cnn3-c3ccc(F)cc3)c2)C(F)(F)F)c2ccccc12 (stereo not shown) [2,2,2-Trifluoro-1-[1-(4-fluorophenyl)-1H-indazol-5-yl]-1-(4-methylnaphthalen-1-yl)ethanol]	agonistic activity
OC(c1ccc2c(cnn2-c2ccc(F)cc2)c1)(c1cccc2ccccc12)C(F)(F)F (stereo not shown) [2,2,2-Trifluoro-1-[1-(4-fluorophenyl)-1H-indazol-5-yl]-1-naphthalen-1-ylethanol]	agonistic activity
OC(c1ccc2c(cnn2-c2ccccc2)c1)(c1cccc2ccccc12)C(F)(F)F (stereo not shown) [2,2,2-Trifluoro-1-naphthalen-1-yl-1-(1-phenyl-1H-indazol-5-yl)ethanol]	agonistic activity
